Reference: patent EP2069533B1, “GENE […] FOR IDENTIFICATION, MONITORING AND TREATMENT OF MULTIPLE SCLEROSIS” (Life Technologies Corporation, priority 2006, dated 2008)

Test system: IL1B
Assay: Whole blood response to E. coli filtrate with or without polymyxin B
Assay type: cell-based, human
Conditions: polymyxin B added to E. coli filtrate
From the text: Figs. 27 through 41 illustrate the use of gene expression panels in early identification and monitoring of infectious disease. These figures plot the response, in expression products of the genes indicated, in whole blood, to the administration of various infectious agents or products associated with infectious agents. In each figure, the gene expression levels are "calibrated", as that term is defined herein, in relation to baseline expression levels determined with respect to the whole blood prior to administration of the relevant infectious agent. In this respect the figures are similar in nature to various figures of our below-referenced patent application WO 01/25473 (for example, Fig. 15 therein). The concentration change is shown ratiometrically, and the baseline level of 1 for a particular gene locus corresponds to an expression level for such locus that is the same, monitored at the relevant time after addition of the infectious agent or other stimulus, as the expression level before addition of the stimulus. Ratiometric changes in concentration are plotted on a logarithmic scale. Bars below the unity line represent decreases in concentration and bars above the unity line represent increases in concentration, the magnitude of each bar indicating the magnitude of the ratio of the change. […]
The responses were monitored at 2, 6, and 24 hours after administration. […]

**Q.** polymyxin B was tested. Which “response of IL1B to E. coli filtrate” value did it give?
**A.** The value was “did not affect the response”.
